# Test results: patent publication US12077503B2, “Substituted cyclic amides and their use as herbicides” (FMC CORPORATION, priority 2015, dated 2024)
# What was measured:
# Assay type in all cases: in vivo
# [1] = test system: barnyardgrass (Echinochloa crus-galli); experiment: Test A preemergence; conditions: Echinochloa crus-galli, pre-emergence, 240 h, 0 to 100 scale where 0 is no effect and 100 is complete control, read-out: Barnyardgrass plant response rating
# Procedure, shortened: (§1)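 Each rating is a visual injury score from 0 to 100 given about 10 d after treatment, judged against untreated controls kept alongside in the greenhouse. In loam soil–sand blend, seeds got a preemergence directed soil spray, while postemergence plants were 2 to 10 cm tall at spraying.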
# [2] = test system: ragweed (common ragweed, Ambrosia elatior); experiment: Test A preemergence; conditions: Ambrosia artemisiifolia, pre-emergence, 240 h, 0 to 100 scale where 0 is no effect and 100 is complete control, read-out: Ragweed plant response rating
# Procedure, shortened: as §1
# [3] = test system: ryegrass, Italian (Italian ryegrass, Lolium multiflorum); experiment: Test A preemergence; conditions: Lolium multiflorum, pre-emergence, 240 h, 0 to 100 scale where 0 is no effect and 100 is complete control, read-out: Ryegrass, Italian plant response rating
# Procedure, shortened: as §1
# Kochia (Kochia scoparia) [4] = experiment: Test A preemergence; conditions: Bassia scoparia, pre-emergence, 240 h, 0 to 100 scale where 0 is no effect and 100 is complete control, read-out: Kochia plant response rating
# Procedure, shortened: as §1
# [5] = test system: giant foxtail (Setaria faberii); experiment: Test A preemergence; conditions: Setaria faberi, pre-emergence, 240 h, 0 to 100 scale where 0 is no effect and 100 is complete control, read-out: Foxtail, Giant plant response rating
# Procedure, shortened: as §1
# [6] = test system: pigweed (Amaranthus retroflexus); experiment: Test A preemergence; conditions: Amaranthus retroflexus, pre-emergence, 240 h, 0 to 100 scale where 0 is no effect and 100 is complete control, read-out: Pigweed plant response rating
# [7] = test system: barnyardgrass (Echinochloa crus-galli); experiment: Test A postemergence; conditions: Echinochloa crus-galli, post-emergence, 240 h
# Procedure, shortened: as §1
# [8] = test system: ragweed (common ragweed, Ambrosia elatior); experiment: Test A postemergence; conditions: Ambrosia artemisiifolia, post-emergence, 240 h
# Procedure, shortened: as §1
# [9] = test system: ryegrass, Italian (Italian ryegrass, Lolium multiflorum); experiment: Test A postemergence; conditions: Lolium multiflorum, post-emergence, 240 h
# Procedure, shortened: as §1
# [10] = test system: Galium (catchweed bedstraw, Galium aparine); experiment: Test A postemergence; conditions: Galium, post-emergence, 240 h
# Procedure, shortened: as §1
# Kochia (Kochia scoparia) [11] = experiment: Test A postemergence; conditions: Bassia scoparia, post-emergence, 240 h
# Procedure, shortened: as §1
# [12] = test system: blackgrass (Alopecurus myosuroides); experiment: Test A postemergence; conditions: Alopecurus myosuroides, post-emergence, 240 h
# Procedure, shortened: as §1
# [13] = test system: giant foxtail (Setaria faberii); experiment: Test A postemergence; conditions: Setaria faberi, post-emergence, 240 h
# Procedure, shortened: as §1
# [14] = test system: wheat (Triticum aestivum); experiment: Test A postemergence; conditions: Triticum aestivum, post-emergence, 240 h
# Procedure, shortened: as §1
# corn (Zea mays) = experiment: Test A postemergence; conditions: Zea mays, post-emergence, 240 h
# Procedure, shortened: as §1
# [15] = test system: pigweed (Amaranthus retroflexus); experiment: Test A postemergence; conditions: Amaranthus retroflexus, post-emergence, 240 h
# Procedure, shortened: as §1
# [16] = test system: barnyardgrass (Echinochloa crus-galli); experiment: Test B flooded paddy test; conditions: Echinochloa crus-galli, 250 g ai/ha, Flood; 0 to 100 scale where 0 is no effect and 100 is complete control; read-out: Barnyardgrass plant response rating
# Procedure, shortened: (§2)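 Rating scale 0–100 (visual, vs untreated controls) after a 13–15 d greenhouse period; application to the flood layer, 3 cm above soil and maintained; plants at 2-leaf stage when treated.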
# [17] = test system: sedge, umbrella (small-flower umbrella sedge, Cyperus difformis); experiment: Test B flooded paddy test; conditions: Cyperus difformis, 250 g ai/ha, Flood; 0 to 100 scale where 0 is no effect and 100 is complete control; read-out: Sedge, Umbrella plant response rating
# Procedure, shortened: as §2
# rice (Oryra sativa) = experiment: Test B flooded paddy test; conditions: Oryza sativa, 250 g ai/ha, Flood; 0 to 100 scale where 0 is no effect and 100 is complete control; read-out: Rice plant response rating
# Procedure, shortened: as §2
# [18] = test system: ducksalad (Heteranthera limosa); experiment: Test B flooded paddy test; conditions: Heteranthera limosa, 250 g ai/ha, Flood; 0 to 100 scale where 0 is no effect and 100 is complete control; read-out: Ducksalad plant response rating
# Procedure, shortened: as §2
# [19] = 125 g ai/ha, preemergence, approx. 10 d
smiles,measurement,setting,value
CN1C[C@H](c2ccc(C(F)(F)F)nc2)[C@@](C)(C(=O)Nc2ccc(F)c(F)c2F)C1=O [Compound 1110],pest or weed control at 31 g/ha,"[1]; 31 g ai/ha, Preemergence",90%
same,pest or weed control at 125 g/ha,[1]; [19],100%
same,pest or weed control at 31 g/ha,"[2]; 31 g ai/ha, Preemergence",0%
same,pest or weed control at 125 g/ha,[2]; [19],40%
same,pest or weed control at 31 g/ha,"[3]; 31 g ai/ha, Preemergence",30%
same,pest or weed control at 125 g/ha,[3]; [19],50%
same,pest or weed control at 31 g/ha,"Kochia (Kochia scoparia) [4]; 31 g ai/ha, Preemergence",0%
same,pest or weed control at 125 g/ha,Kochia (Kochia scoparia) [4]; [19],70%
same,pest or weed control at 31 g/ha,"[5]; 31 g ai/ha, Preemergence",90%
same,pest or weed control at 125 g/ha,[5]; [19],100%
same,pest or weed control at 31 g/ha,"[6]; 31 g ai/ha, Preemergence",60%
same,pest or weed control at 125 g/ha,[6]; [19],90%
same,pest or weed control at 125 g/ha,"[7]; 125 g ai/ha, postemergence, visual injury on 0 to 100 scale (0 no effect, 100 complete control), approx. 10 d, read-out: Barnyardgrass plant response rating",90%
same,pest or weed control at 31 g/ha,"[7]; Postemergence, 31 g ai/ha, visual injury after approx. 10 d, 0 to 100 scale, 0 no effect, 100 complete control, read-out: Plant response rating, Barnyardgrass",80%
same,pest or weed control at 125 g/ha,"[8]; 125 g ai/ha, postemergence, visual injury on 0 to 100 scale (0 no effect, 100 complete control), approx. 10 d, read-out: Ragweed plant response rating",30%
same,pest or weed control at 31 g/ha,"[8]; Postemergence, 31 g ai/ha, visual injury after approx. 10 d, 0 to 100 scale, 0 no effect, 100 complete control, read-out: Plant response rating, Ragweed",0%
same,pest or weed control at 125 g/ha,"[9]; 125 g ai/ha, postemergence, visual injury on 0 to 100 scale (0 no effect, 100 complete control), approx. 10 d, read-out: Ryegrass, Italian plant response rating",60%
same,pest or weed control at 31 g/ha,"[9]; Postemergence, 31 g ai/ha, visual injury after approx. 10 d, 0 to 100 scale, 0 no effect, 100 complete control, read-out: Plant response rating, Ryegrass, Italian",40%
same,pest or weed control at 125 g/ha,"[10]; 125 g ai/ha, postemergence, visual injury on 0 to 100 scale (0 no effect, 100 complete control), approx. 10 d, read-out: Galium plant response rating",50%
same,pest or weed control at 31 g/ha,"[10]; Postemergence, 31 g ai/ha, visual injury after approx. 10 d, 0 to 100 scale, 0 no effect, 100 complete control, read-out: Plant response rating, Galium",20%
same,pest or weed control at 125 g/ha,"Kochia (Kochia scoparia) [11]; 125 g ai/ha, postemergence, visual injury on 0 to 100 scale (0 no effect, 100 complete control), approx. 10 d, read-out: Kochia plant response rating",70%
same,pest or weed control at 31 g/ha,"Kochia (Kochia scoparia) [11]; Postemergence, 31 g ai/ha, visual injury after approx. 10 d, 0 to 100 scale, 0 no effect, 100 complete control, read-out: Plant response rating, Kochia",30%
same,pest or weed control at 125 g/ha,"[12]; 125 g ai/ha, postemergence, visual injury on 0 to 100 scale (0 no effect, 100 complete control), approx. 10 d, read-out: Blackgrass plant response rating",60%
same,pest or weed control at 31 g/ha,"[12]; Postemergence, 31 g ai/ha, visual injury after approx. 10 d, 0 to 100 scale, 0 no effect, 100 complete control, read-out: Plant response rating, Blackgrass",0%
same,pest or weed control at 125 g/ha,"[13]; 125 g ai/ha, postemergence, visual injury on 0 to 100 scale (0 no effect, 100 complete control), approx. 10 d, read-out: Foxtail, Giant plant response rating",90%
same,pest or weed control at 31 g/ha,"[13]; Postemergence, 31 g ai/ha, visual injury after approx. 10 d, 0 to 100 scale, 0 no effect, 100 complete control, read-out: Plant response rating, Foxtail, Giant",60%
same,plant injury at 125 g/ha,"[14]; 125 g ai/ha, postemergence, visual injury on 0 to 100 scale (0 no effect, 100 complete control), approx. 10 d, read-out: Wheat plant response rating",70%
same,plant injury at 31 g/ha,"[14]; Postemergence, 31 g ai/ha, visual injury after approx. 10 d, 0 to 100 scale, 0 no effect, 100 complete control, read-out: Plant response rating, Wheat",30%
same,plant injury at 125 g/ha,"corn (Zea mays); 125 g ai/ha, postemergence, visual injury on 0 to 100 scale (0 no effect, 100 complete control), approx. 10 d, read-out: Corn plant response rating",80%
same,"Corn plant response rating (crop injury, 0 = no effect, 100 = complete kill) at 31 g/ha","corn (Zea mays); Postemergence, 31 g ai/ha, visual injury after approx. 10 d, 0 to 100 scale, 0 no effect, 100 complete control",30%
same,pest or weed control at 125 g/ha,"[15]; 125 g ai/ha, postemergence, visual injury on 0 to 100 scale (0 no effect, 100 complete control), approx. 10 d, read-out: Pigweed plant response rating",50%
same,pest or weed control at 31 g/ha,"[15]; Postemergence, 31 g ai/ha, visual injury after approx. 10 d, 0 to 100 scale, 0 no effect, 100 complete control, read-out: Plant response rating, Pigweed",20%
same,pest or weed control at 250 g/ha,[16],90%
same,pest or weed control at 250 g/ha,[17],0%
same,pest or weed control at 250 g/ha,rice (Oryra sativa),50%
same,pest or weed control at 250 g/ha,[18],100%
